Results published in PMC5924706 (ACS chemical neuroscience, 2017).
Like-named read-outs stand apart in the source and are kept apart here.

Assays:
[1] = tested on: GluN2C-expressing cultured rat cortical neurons; test: Agonist-evoked NMDAR currents in transfected cultured cortical neurons; conditions: 20 μM compound; NMDA and glycine pressure pulses
[2] = tested on: cultured rat cortical neurons transfected with GFP alone; test: as above; conditions: 20 μM compound; NMDA and glycine pressure pulses
GluN2C/2D over GluN2A/2B = conditions: cited from earlier work
GluN1/GluN2D receptors = GluN1/GluN2D receptors (Rattus norvegicus, UniProt Q62645); conditions: for agonist pEC50 at GluN1/GluN2D: mean (95% CI); for EC50: read-out: agonist EC50 at GluN1/GluN2D
GluN1/GluN2D receptors, sequence (Q62645 28-1323, other chains not shown): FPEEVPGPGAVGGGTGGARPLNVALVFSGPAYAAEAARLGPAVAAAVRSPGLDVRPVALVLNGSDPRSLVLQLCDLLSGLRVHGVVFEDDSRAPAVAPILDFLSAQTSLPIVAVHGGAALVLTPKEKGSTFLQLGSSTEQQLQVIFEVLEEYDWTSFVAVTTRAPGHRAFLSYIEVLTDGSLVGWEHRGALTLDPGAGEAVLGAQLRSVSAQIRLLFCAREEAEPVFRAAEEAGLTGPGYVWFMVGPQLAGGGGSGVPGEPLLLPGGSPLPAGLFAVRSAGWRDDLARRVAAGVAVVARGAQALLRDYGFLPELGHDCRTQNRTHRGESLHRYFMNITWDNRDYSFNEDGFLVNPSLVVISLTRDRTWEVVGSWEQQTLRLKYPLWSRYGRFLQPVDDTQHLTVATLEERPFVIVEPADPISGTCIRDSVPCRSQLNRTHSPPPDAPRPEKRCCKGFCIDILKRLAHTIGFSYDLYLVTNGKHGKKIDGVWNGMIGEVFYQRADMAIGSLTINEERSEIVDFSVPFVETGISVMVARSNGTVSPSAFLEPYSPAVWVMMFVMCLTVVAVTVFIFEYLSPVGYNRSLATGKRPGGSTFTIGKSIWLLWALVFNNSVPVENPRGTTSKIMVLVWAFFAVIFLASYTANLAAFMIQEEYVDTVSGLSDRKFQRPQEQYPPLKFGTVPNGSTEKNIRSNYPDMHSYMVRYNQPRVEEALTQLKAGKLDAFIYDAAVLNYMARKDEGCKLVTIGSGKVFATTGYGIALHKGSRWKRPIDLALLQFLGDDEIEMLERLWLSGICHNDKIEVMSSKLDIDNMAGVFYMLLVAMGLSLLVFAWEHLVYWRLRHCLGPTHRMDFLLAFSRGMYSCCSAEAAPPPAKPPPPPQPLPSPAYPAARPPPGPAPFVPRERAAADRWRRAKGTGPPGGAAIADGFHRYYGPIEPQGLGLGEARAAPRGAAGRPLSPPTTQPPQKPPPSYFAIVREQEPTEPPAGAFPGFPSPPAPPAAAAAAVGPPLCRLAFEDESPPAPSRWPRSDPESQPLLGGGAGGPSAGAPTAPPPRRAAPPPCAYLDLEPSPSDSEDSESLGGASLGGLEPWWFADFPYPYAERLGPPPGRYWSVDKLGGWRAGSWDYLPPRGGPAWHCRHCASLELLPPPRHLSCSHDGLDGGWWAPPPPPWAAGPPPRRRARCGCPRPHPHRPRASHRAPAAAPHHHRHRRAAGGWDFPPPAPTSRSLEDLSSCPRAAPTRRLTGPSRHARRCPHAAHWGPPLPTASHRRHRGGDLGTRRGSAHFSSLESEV

With `COc1ccc(OCC2c3cc(OC)c(OC)cc3CCN2C(=O)c2cccc(Cl)c2)cc1` (centres unmarked) [CIQ] the “agonist-evoked response, % of control, GluN2C-expressing neurons” value [1] was 145 ± 5.9% and the “agonist-evoked response, % of control, neurons transfected with GFP alone” value [2] was 98 ± 1.8%.

For `Cc1ccc2[nH]c(=O)c(C3=NN(C(=O)CCC(=O)O)C(c4ccc(Br)cc4)C3)c(-c3ccccc3)c2c1` (centres unmarked) [DQP-1105], the “selectivity for GluN2C/2D over GluN2A/2B” value (GluN2C/2D over GluN2A/2B) is given as “up to 50 fold”.

In the case of `COc1ccc2nc(/C=C/c3cccc([N+](=O)[O-])c3)n(-c3ccc(C(=O)O)cc3)c(=O)c2c1` [QNZ46], the “selectivity for GluN2C/2D over GluN2A/2B” value (GluN2C/2D over GluN2A/2B) is listed as “up to 50 fold”.

In the case of `N[C@@H](CCC(=O)O)C(=O)O` [glutamate], the “agonist pEC50 at GluN1/GluN2D” value (GluN1/GluN2D receptors; absence of NAB-14) is reported as −6.22 (−6.29, −6.14), the “agonist pEC50 at GluN1/GluN2D” value (GluN1/GluN2D receptors; presence of 3 μM NAB-14) is reported as −6.15 (−6.36, −5.93) and the EC50 (GluN1/GluN2D receptors; absence of NAB-14) is reported as 610 nM. For the same compound, the EC50 (GluN1/GluN2D receptors; presence of 3 μM NAB-14) was 710 nM.
